ED50 and IC50 data for 2 compounds are collected here from patent EP0508004A1, “Phenylsulfonylalkanoic acid compounds” (Kissei Pharmaceutical Co., Ltd., priority 1991, dated 1992).

Test [1] deals with amylase secretion. Briefly: Effect on amylase secretion in rats (stimulated by CCK-8). Type of test: in vivo. Conditions: Rattus norvegicus, sc; intraduodenal administration 30 minutes before CCK-8 (10 µg/kg, subcutaneous); anesthetized male Wistar rats; amylase in biliopancreatic juice; read-out: ED₅₀. The method, then: Male Wistar rats were anesthetized with urethane (1.5 g/kg, S.C.), and tracheal cannula was inserted. Biliopancreatic juice was collected from the cannula which had been inserted into the common bile duct. Thirty minutes after intraduodenal administration of test drug, anylase secretion was stimulated by subcutaneous injection of CCK-8 (10 µg/kg). Amylase concentration in the sample collected every 30 minutes during experiment was assayed using Amylase B Test (Wako), and ED₅₀ value was calculated.

The test system of test [2] is Gallbladder strips. Put plainly: CCK-antagonism in isolated gallbladder (contraction of strips induced by CCK-8). The class given is cell-based, Hartley guinea-pig. The note with it: Cavia porcellus; antagonism of gallbladder contraction induced by 10⁻⁸ M CCK-8, guinea-pig strips, Krebs solution, 37°C; read-out: IC₅₀. The method, then:
Gallbladder strips isolated from male Hartley guinea-pig were prepared and suspended in Magnus bath filled with Krebs solution (1 g of initial tension). The solution kept at 37°C was aerated with a mixture of 95% O₂ and 5% CO₂. The isometric contraction of strips was recorded through a force-displacement transducer. Antagonism by test drugs against gallbladder contraction induced by 10⁻⁸ M CCK-8 was examined and IC₅₀ value was calculated.

As to `CCCCCCN(CCCCCC)C(=O)C(CCC(=O)O)CS(=O)(=O)c1ccc(Cl)c(Cl)c1` (racemic) [Compound 33], the ED50 in test [1] was 7.1 mg/kg. As to `CCCCCN(CCCCC)C(=O)C(CC(=O)O)CS(=O)(=O)c1ccc(Cl)c(Cl)c1` (racemic) [Compound 29], in test [1], the ED50 came out at 9.9 mg/kg. Also, the IC50 in test [2] amounted to 37 µM.
